According to patent US20160038505A1, “METHODS AND COMPOSITIONS FOR TREATING IMPULSE CONTROL DISORDER, ANXIETY-RELATED DISORDERS, VIOLENCE AND/OR ANGER, OR REGULATING FOOD INTAKE” (priority 2014, published 2016):

How the values were obtained:
[1] = Serum pharmacokinetics in opioid-dependent patients (Phase IB); format: in vivo, human; set-up: unit not given here
Protocol: (§1) Three cohorts of nine (9) subjects (6 administered noribogaine and 3 administered placebo in each cohort) were evaluated for tolerability, pharmacokinetics, and efficacy. Cohort 1 received a single dose of 60 mg noribogaine or placebo. Cohort 2 received a single dose of 120 mg noribogaine or placebo. Cohort 3 received a single dose of 180 mg noribogaine or placebo.
FIG. 4 indicates the serum noribogaine concentration over time for each cohort.

[2] = Pharmacokinetics of noribogaine in healthy male volunteers (plasma, urine, LCMSMS)
dogs = assay: Single dose (acute oral) toxicity/TK study in dogs; format: in vivo, dog
[3] = test system: opioid-dependent participants; assay: Treatment emergent adverse events in opioid-dependent participants (Phase IB); format: in vivo, human
Protocol: This example is to illustrate that noribogaine can be administered at a therapeutic dosing while maintaining an acceptable QT interval.
See PCT Application No. PCT/US2013/069235, filed Nov. 8, 2013, which is incorporated herein by reference in its entirety.
as §1

[4] = Human pharmacokinetic study, single oral tablet, fasting healthy volunteers (serum); format: in vivo; conditions: fasting, serum
Protocol: In double blind studies, fasting healthy volunteers (6 per cohort) were treated once orally with a tablet of noribogaine HCl. In escalating cohorts, the volunteers received 3 mg, 10 mg, 30 mg or 60 mg noribogaine.

[5] = 30 mg single oral dose, plasma, mean (SD), n = 6

CC[C@H]1CC2C[C@H]3c4[nH]c5ccc(O)cc5c4CCN(C2)C13 [noribogaine]
Serum noribogaine concentration ([1]; 60 mg, time 0): 0
Serum noribogaine concentration ([1]; 60 mg, time 0.5): 3.75
Serum noribogaine concentration ([1]; 60 mg, time 1): 17.86
Serum noribogaine concentration ([1]; 60 mg, time 1.5): 42.54
Serum noribogaine concentration ([1]; 60 mg, time 2): 53.01
Serum noribogaine concentration ([1]; 60 mg, time 2.5): 63.71
Serum noribogaine concentration ([1]; 60 mg, time 3): 72.95
Serum noribogaine concentration ([1]; 60 mg, time 3.5): 71.43
Serum noribogaine concentration ([1]; 60 mg, time 4): 72.89
Serum noribogaine concentration ([1]; 60 mg, time 5): 65.74
Serum noribogaine concentration ([1]; 60 mg, time 6): 64.47
Serum noribogaine concentration ([1]; 60 mg, time 7): 58.26
Serum noribogaine concentration ([1]; 60 mg, time 8): 59.01
Serum noribogaine concentration ([1]; 60 mg, time 12): 46.10
Serum noribogaine concentration ([1]; 60 mg, time 16): 37.99
Serum noribogaine concentration ([1]; 60 mg, time 24): 27.76
Serum noribogaine concentration ([1]; 60 mg, time 36): 20.32
Serum noribogaine concentration ([1]; 60 mg, time 48): 14.56
Serum noribogaine concentration ([1]; 60 mg, time 60): 9.32
Serum noribogaine concentration ([1]; 60 mg, time 72): 6.55
Serum noribogaine concentration ([1]; 60 mg, time 96): 3.41
Serum noribogaine concentration ([1]; 60 mg, time 120): 1.64
Serum noribogaine concentration ([1]; 60 mg, time 144): 0.89
Serum noribogaine concentration ([1]; 120 mg, time 0): 0
Serum noribogaine concentration ([1]; 120 mg, time 0.5): 19.66
Serum noribogaine concentration ([1]; 120 mg, time 1): 76.04
Serum noribogaine concentration ([1]; 120 mg, time 1.5): 98.80
Serum noribogaine concentration ([1]; 120 mg, time 2): 122.67
Serum noribogaine concentration ([1]; 120 mg, time 2.5): 135.05
Serum noribogaine concentration ([1]; 120 mg, time 3): 130.55
Serum noribogaine concentration ([1]; 120 mg, time 3.5): 128.20
Serum noribogaine concentration ([1]; 120 mg, time 4): 143.90
Serum noribogaine concentration ([1]; 120 mg, time 5): 128.76
Serum noribogaine concentration ([1]; 120 mg, time 6): 118.16
Serum noribogaine concentration ([1]; 120 mg, time 7): 110.76
Serum noribogaine concentration ([1]; 120 mg, time 8): 102.12
Serum noribogaine concentration ([1]; 120 mg, time 12): 77.88
Serum noribogaine concentration ([1]; 120 mg, time 16): 62.24
Serum noribogaine concentration ([1]; 120 mg, time 24): 44.19
Serum noribogaine concentration ([1]; 120 mg, time 36): 28.83
Serum noribogaine concentration ([1]; 120 mg, time 48): 19.54
Serum noribogaine concentration ([1]; 120 mg, time 60): 10.75
Serum noribogaine concentration ([1]; 120 mg, time 72): 7.75
Serum noribogaine concentration ([1]; 120 mg, time 96): 4.66
Serum noribogaine concentration ([1]; 120 mg, time 120): 2.45
Serum noribogaine concentration ([1]; 120 mg, time 144): 1.20
Serum noribogaine concentration ([1]; 180 mg, time 0): 0
Serum noribogaine concentration ([1]; 180 mg, time 0.5): 10.78
Serum noribogaine concentration ([1]; 180 mg, time 1): 65.68
Serum noribogaine concentration ([1]; 180 mg, time 1.5): 134.19
Serum noribogaine concentration ([1]; 180 mg, time 2): 163.32
Serum noribogaine concentration ([1]; 180 mg, time 2.5): 179.63
Serum noribogaine concentration ([1]; 180 mg, time 3): 221.67
Serum noribogaine concentration ([1]; 180 mg, time 3.5): 236.27
Serum noribogaine concentration ([1]; 180 mg, time 4): 238.87
Serum noribogaine concentration ([1]; 180 mg, time 5): 217.26
Serum noribogaine concentration ([1]; 180 mg, time 6): 197.10
Serum noribogaine concentration ([1]; 180 mg, time 7): 207.47
Serum noribogaine concentration ([1]; 180 mg, time 8): 185.55
Serum noribogaine concentration ([1]; 180 mg, time 12): 159.53
Serum noribogaine concentration ([1]; 180 mg, time 16): 127.63
Serum noribogaine concentration ([1]; 180 mg, time 24): 97.34
Serum noribogaine concentration ([1]; 180 mg, time 36): 59.50
Serum noribogaine concentration ([1]; 180 mg, time 48): 43.75
Serum noribogaine concentration ([1]; 180 mg, time 60): 33.69
Serum noribogaine concentration ([1]; 180 mg, time 72): 23.06
Serum noribogaine concentration ([1]; 180 mg, time 96): 13.04
Serum noribogaine concentration ([1]; 180 mg, time 120): 3.37
Serum noribogaine concentration ([1]; 180 mg, time 144): 1.61
CL/F ([2]; 3 mg single oral dose, plasma, mean (SD), n = 6): 41.4 (7.0) L/h
CL/F ([2]; 10 mg single oral dose, plasma, mean (SD), n = 6): 42.3 (12.0) L/h
CL/F [2, 5]: 46.9 (16.4) L/h
Tmax [2, 5]: 1.8 (0.6) hr
CL/F ([2]; 60 mg single oral dose, plasma, mean (SD), n = 6): 34.0 (11.4) L/h
dose dependence of Cmax and AUC ([2]; 3-60 mg): increased linearly with dose
mean half-life estimates ([2]; across dose groups 3-60 mg): 28 to 50 h
time of peak concentrations after oral dosing ([2]; across dose groups 3-60 mg): 2 to 3 h
volume of distribution ([2]; across dose groups 3-60 mg): 1417 to 3086 L
findings at NOAEL dose (dogs; 5 mg/kg): only transient reduction in food consumption in one dog
clinical signs (dogs; 10 mg/kg, from 20 minutes until 3 h 40 m post-dose): Convulsions and other CNS-related clinical signs
mortality (dogs; 5 (n=2) or 10 (n=2) mg/kg oral): no mortality occurred
Adverse event: Catheter Site Infection ([3]; 60 mg (N = 6)): 0
Adverse event: Catheter Site Pain ([3]; 60 mg (N = 6)): 0
Adverse event: Catheter Site Related Reaction ([3]; 60 mg (N = 6)): 0
Adverse event: Cellulitis ([3]; 60 mg (N = 6)): 0
Adverse event: Diarrhoea ([3]; 60 mg (N = 6)): 0
Adverse event: Dry Mouth ([3]; 60 mg (N = 6)): 0
Adverse event: Ear and Labyrinth Disorders ([3]; 60 mg (N = 6)): 0
Adverse event: Epistaxis ([3]; 60 mg (N = 6)): 0
Adverse event: Euphoric Mood ([3]; 60 mg (N = 6)): 0
Adverse event: General Disorders and Administration Site Conditions ([3]; 60 mg (N = 6)): 0
Adverse event: Hyperaesthesia ([3]; 60 mg (N = 6)): 0
Adverse event: Infections and Infestations ([3]; 60 mg (N = 6)): 0
Adverse event: Limb Discomfort ([3]; 60 mg (N = 6)): 0
Adverse event: Malaise ([3]; 60 mg (N = 6)): 0
Adverse event: Nausea ([3]; 60 mg (N = 6)): 0
Adverse event: Oropharyngeal Pain ([3]; 60 mg (N = 6)): 0
Adverse event: Pseudoparalysis ([3]; 60 mg (N = 6)): 0
Adverse event: Respiratory, Thoracic and Mediastinal Disorders ([3]; 60 mg (N = 6)): 0
Adverse event: Rhinorrhoea ([3]; 60 mg (N = 6)): 0
Adverse event: Skin Discomfort ([3]; 60 mg (N = 6)): 0
Adverse event: Skin Irritation ([3]; 60 mg (N = 6)): 0
Adverse event: Skin and Subcutaneous Tissue Disorders ([3]; 60 mg (N = 6)): 0
Adverse event: Somnoience ([3]; 60 mg (N = 6)): 0
Adverse event: Tinnitus ([3]; 60 mg (N = 6)): 0
Adverse event: Tremor ([3]; 60 mg (N = 6)): 0
Adverse event: Urinary Tract Infection ([3]; 60 mg (N = 6)): 0
Adverse event: Vomiting ([3]; 60 mg (N = 6)): 0
Adverse event: Back Pain ([3]; 120 mg (N = 6)): 0
Adverse event: Catheter Site Infection ([3]; 120 mg (N = 6)): 0
Adverse event: Catheter Site Related Reaction ([3]; 120 mg (N = 6)): 0
Adverse event: Depressed Mood ([3]; 120 mg (N = 6)): 0
Adverse event: Dry Eye ([3]; 120 mg (N = 6)): 0
Adverse event: Dyspepsia ([3]; 120 mg (N = 6)): 0
Adverse event: Euphoric Mood ([3]; 120 mg (N = 6)): 0
Adverse event: Limb Discomfort ([3]; 120 mg (N = 6)): 0
Adverse event: Malaise ([3]; 120 mg (N = 6)): 0
Adverse event: Musculoskeletal and Connective Tissue Disorders ([3]; 120 mg (N = 6)): 0
Adverse event: Psychiatric Disorders ([3]; 120 mg (N = 6)): 0
Adverse event: Somnoience ([3]; 120 mg (N = 6)): 0
Adverse event: Urinary Tract Infection ([3]; 120 mg (N = 6)): 0
Adverse event: Catheter Site Infection ([3]; 180 mg (N = 6)): 0
Adverse event: Catheter Site Pain ([3]; 180 mg (N = 6)): 0
Adverse event: Depressed Mood ([3]; 180 mg (N = 6)): 0
Adverse event: Diarrhoea ([3]; 180 mg (N = 6)): 0
Adverse event: Dry Eye ([3]; 180 mg (N = 6)): 0
Adverse event: Dyspepsia ([3]; 180 mg (N = 6)): 0
Adverse event: Ear and Labyrinth Disorders ([3]; 180 mg (N = 6)): 0
Adverse event: Epistaxis ([3]; 180 mg (N = 6)): 0
Adverse event: Euphoric Mood ([3]; 180 mg (N = 6)): 0
Adverse event: Hyperaesthesia ([3]; 180 mg (N = 6)): 0
Adverse event: Malaise ([3]; 180 mg (N = 6)): 0
Adverse event: Oropharyngeal Pain ([3]; 180 mg (N = 6)): 0
Adverse event: Pseudoparalysis ([3]; 180 mg (N = 6)): 0
Adverse event: Psychiatric Disorders ([3]; 180 mg (N = 6)): 0
Adverse event: Respiratory, Thoracic and Mediastinal Disorders ([3]; 180 mg (N = 6)): 0
Adverse event: Rhinorrhoea ([3]; 180 mg (N = 6)): 0
Adverse event: Skin Discomfort ([3]; 180 mg (N = 6)): 0
Adverse event: Skin Irritation ([3]; 180 mg (N = 6)): 0
Adverse event: Skin and Subcutaneous Tissue Disorders ([3]; 180 mg (N = 6)): 0
Adverse event: Somnoience ([3]; 180 mg (N = 6)): 0
Adverse event: Tinnitus ([3]; 180 mg (N = 6)): 0
Adverse event: Tremor ([3]; 180 mg (N = 6)): 0
hallucinatory effects ([3]; 60, 120 or 180 mg single dose): no hallucinatory effects
mean AUC/24 hr ([4]; single dose of 3 mg): 3.1 ng/mL
time after administration at which mean Cmax was observed ([4]; single dose of 3 mg): 1.9 h
mean AUC/24 hr ([4]; single dose of 10 mg): 10.6 ng/mL
time after administration at which mean Cmax was observed ([4]; single dose of 10 mg): 2.9 h
mean AUC/24 ([4]; single dose of 30 mg): 29.2 ng/mL
time after administration at which mean Cmax was observed ([4]; single dose of 30 mg): 1.75 h
mean AUC/24 ([4]; single dose of 60 mg): 61 ng/mL
time after administration at which mean Cmax was observed ([4]; single dose of 60 mg): 1.75 h
